# Assay results reported in patent US20260240926A1, “METHOD OF MAKING A PROBIOTIC FERMENTED PRODUCT” (UNIVERSITY OF SOUTH FLORIDA, priority 2023, published 2026).
# Test system: C57BL/6 mice
# Test: Chemotherapy (5-FU) induced dysbiosis model in C57BL/6 mice
# Format: in vivo
# Conditions: 5-FU alone
# Procedure: Based on previous studies, a model of chemotherapy induced dysbiosis in C57BL/6 mice using 5-Fluorouracil (5-FU) chemotherapy was established. 5-FU accelerated body weight loss (FIG. 16A), reduced microbiome diversity (FIG. 16B), increased gut permeability (FIG. 16C), damaged intestinal villi in the ileum (FIG. 16D), and impaired cognitive function (FIG. 16E). […] It was determined where the PFM has more significant protective effects compared to non-fermented probiotics (same four strains suspended in saline, instead of fermented in milk).
smiles,measurement,value
"O=c1[nH]cc(F)c(=O)[nH]1 [5-FU, 5-Fluorouracil]",body weight loss,accelerated
same,cognitive function,impaired
same,intestinal villi in the ileum,damaged
same,microbiome diversity,reduced
